Test results reported in patent publication US9657062B2, “Ghrelin analogues” (Zealand Pharma A/S, priority 2012, dated 2017).
Where a SMILES comes first, the peptide text is derived from it. The star is where a group is joined. Octyl = CCCCCCCC*

Tested on: normal chow-fed C57BL/6J male mice
Experiment: Effect on food intake in normal mice (HM-2 automated monitoring)
Assay type: in vivo, mouse
Conditions: 300 nmol/kg s.c. once, light phase 0-6 h, modified protocol (food access re-opened 2 h after dosing)
Procedure: Normal chow-fed C57BL/6J male mice were used. The mice were kept in an automated food- and water-intake monitoring system (HM-2) which allows automated on-line measurements of accumulated food intake (FI) and other parameters. Food intake was monitored by the HM-2 system up to 24 h after dosing. The mice were kept 6 per cage, and each dosing group consisted of 6 animals.
In the initial experimental set-up with ghrelin as test compound, animals were allowed free access to food directly after treatment, and the resulting data for food intake are shown in FIG. 1A herein (vide infra).
In order to further investigate the “duration of action” of ghrelin and the other test compounds a new protocol was defined. In the modified protocol the gate to the food chambers was closed prior to dosing with vehicle or test compound and was re-opened 2 hours thereafter. The resulting data for food intake following dosing with ghrelin or vehicle are summarized in FIG. 1B (vide infra), while the corresponding data for food intake following dosing with each of the of the other four test compounds. (Compound 16, 22, 23 or 43 of the invention) or with vehicle are summarized in FIG. 2A (data for monitoring up to 6 hours after dosing) and FIG. 2B (data for monitoring up to 24 hours after dosing).

| SMILES | Accumulated FI at 6h |
| --- | --- |
| CCCCCCCCOC[C@H](NC(=O)[C@H](CO)NC(=O)[C@@H]1CCCN1)C(=O)N[C@@H](Cc1ccccc1)C(=O)N[C@@H](CC(C)C)C(=O)N[C@@H](CO)C(=O)N1CCC[C@H]1C(=O)N[C@@H](CCC(=O)O)C(=O)N[C@@H](Cc1c[nH]cn1)C(=O)N[C@@H](CO)C(=O)N[C@@H](CCCNC(=N)N)C(=O)N[C@H](C(=O)N[C@@H](CO)C(=O)N[C@@H](CO)C(=O)N[C@@H](CCCNC(=N)N)C(=O)N[C@@H](CCCCN)C(=O)N[C@@H](CCC(=O)O)C(=O)N[C@@H](CO)C(=O)N[C@@H](CO)C(=O)N[C@@H](CO)C(=O)N1CCC[C@H]1C(=O)N1CCC[C@H]1C(=O)N[C@@H](C)C(=O)N[C@@H](CCCCN)C(=O)N[C@@H](CC(C)C)C(=O)N[C@@H](CO)C(=O)N1CCC[C@H]1C(=O)N[C@@H](CCCNC(=N)N)C(N)=O)C(C)C [Compound 47] (H-PSS(Octyl)FLSPEHSRVSSRKESSSPPAKLSPR-NH2) | 1.55 ± 0.16 g |
| CCCCCCCCOC[C@H](NC(=O)[C@H](CO)NC(=O)[C@@H]1CCCN1)C(=O)N[C@@H](Cc1ccccc1)C(=O)N[C@@H](CC(C)C)C(=O)N[C@@H](CO)C(=O)N1CCC[C@H]1C(=O)N[C@@H](CCC(=O)O)C(=O)N[C@@H](Cc1c[nH]cn1)C(=O)N[C@@H](CO)C(=O)N[C@@H](CCCNC(=N)N)C(=O)N1CCC[C@H]1C(=O)N[C@@H](CO)C(=O)N[C@@H](CO)C(=O)N[C@@H](CCCNC(=N)N)C(N)=O [Compound 48] (H-PSS(Octyl)FLSPEHSRPSSR-NH2) | 0 ± 0 g |
| CCCCCCCCOC[C@H](NC(=O)[C@H](CO)NC(=O)[C@@H]1CCCN1)C(=O)N[C@@H](Cc1ccccc1)C(=O)N[C@@H](CC(C)C)C(=O)N[C@@H](CO)C(=O)N1CCC[C@H]1C(=O)N[C@@H](CCC(=O)O)C(=O)N[C@@H](Cc1c[nH]cn1)C(=O)N[C@@H](CO)C(=O)N[C@@H](CCCNC(=N)N)C(=O)N[C@H](C(=O)N[C@@H](CO)C(=O)N[C@@H](CO)C(=O)N[C@@H](CCCNC(=N)N)C(=O)N1CCC[C@H]1C(=O)N[C@@H](CCC(=O)O)C(=O)N[C@@H](CO)C(=O)N[C@@H](CO)C(=O)N[C@@H](CO)C(=O)N1CCC[C@H]1C(=O)N1CCC[C@H]1C(=O)N[C@@H](C)C(=O)N[C@@H](CCCCN)C(=O)N[C@@H](CC(C)C)C(=O)N[C@@H](CO)C(=O)N1CCC[C@H]1C(=O)N[C@@H](CCCNC(=N)N)C(N)=O)C(C)C [Compound 49] (H-PSS(Octyl)FLSPEHSRVSSRPESSSPPAKLSPR-NH2) | 0.6 ± 0.09 g |
| CCCCCCCCOC[C@H](NC(=O)[C@H](CO)NC(=O)[C@@H]1CCCN1)C(=O)N[C@@H](Cc1ccccc1)C(=O)N[C@@H](CC(C)C)C(=O)N[C@@H](CO)C(=O)N1CCC[C@H]1C(=O)N[C@@H](CCC(=O)O)C(=O)N[C@@H](Cc1c[nH]cn1)C(=O)N[C@@H](CO)C(=O)N[C@@H](CCCNC(=N)N)C(=O)N1CCC[C@H]1C(=O)N[C@@H](CO)C(=O)N[C@@H](CO)C(=O)N[C@@H](CCCNC(=N)N)C(=O)N1CCC[C@H]1C(=O)N[C@@H](CCC(=O)O)C(=O)N[C@@H](CO)C(=O)N[C@@H](CO)C(=O)N[C@@H](CO)C(=O)N1CCC[C@H]1C(=O)N1CCC[C@H]1C(=O)N[C@@H](C)C(=O)N[C@@H](CCCCN)C(=O)N[C@@H](CC(C)C)C(=O)N[C@@H](CO)C(=O)N1CCC[C@H]1C(=O)N[C@@H](CCCNC(=N)N)C(N)=O [Compound 50] (H-PSS(Octyl)FLSPEHSRPSSRPESSSPPAKLSPR-NH2) | 0.19 ± 0.05 g |

Biological target: T1, human ghrelin receptor (GHSR1a) (Homo sapiens, UniProt Q92847)
T1 construct: expressed in transfected cells; plasmid pIRESneo2dNGFR
T1 sequence (Q92847 whole entry): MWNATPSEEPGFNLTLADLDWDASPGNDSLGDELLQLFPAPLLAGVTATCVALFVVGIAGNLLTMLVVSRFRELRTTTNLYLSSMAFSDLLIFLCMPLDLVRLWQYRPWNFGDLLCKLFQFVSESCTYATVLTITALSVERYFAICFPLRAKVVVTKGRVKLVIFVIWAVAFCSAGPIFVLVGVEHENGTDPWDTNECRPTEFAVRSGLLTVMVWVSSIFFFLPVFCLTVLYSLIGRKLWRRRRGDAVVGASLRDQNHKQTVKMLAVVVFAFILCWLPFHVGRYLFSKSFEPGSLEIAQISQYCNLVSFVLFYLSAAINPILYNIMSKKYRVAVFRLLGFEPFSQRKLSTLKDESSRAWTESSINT
Experiment: Ghrelin receptor functional assay (Ca2+ induction, Fluo-4, FLIPR) in HEK293 cells stably expressing the human ghrelin receptor
Assay type: cell-based
Conditions: HEK293 cell line stably expressing human GHSR1a
From the text: To test activation of the ghrelin receptor, stable cell lines expressing the human ghrelin receptor were produced. In brief, HEK293 cells were used for transfection of the cDNA for human ghrelin receptor cloned into the transfection plasmid pIRESneo2dNGFR. […] The DNA encoding the ghrelin receptor was amplified by PCR using primers also encoding terminal restriction sites for subcloning. The ghrelin receptor was subcloned into a mammalian expression vector containing a neomycin (G418) resistance marker. The fidelity of the DNA encoding the receptor was confirmed by DNA sequencing. HEK293 cells were used for transfection of the ghrelin receptor expression plasmid. The cells were grown according to standard protocol in growth medium and transfected with the plasmids using Lipofectamin (Invitrogen) according to the manufacturer's protocol. […]
The plate with test compounds was pre-warmed before starting the measurements. […] The program measures basal level of fluorescence of Fluo-4 for 10 seconds, adds 100 μl of peptide solution to the cells and measures the change in fluorescence as a consequence of the changes in Ca^2+ concentration in the cells. The output used for calculation of activity was selected to be the maximal response (expressed as a ratio to the basal level. EC50 values) and maximal response values were determined based on these values.

| EC50 | SMILES |
| --- | --- |
| > 1000 nM | CC(C)C[C@H](NC(=O)[C@H](CCCCN)NC(=O)[C@H](C)NC(=O)[C@@H]1CCCN1C(=O)[C@@H]1CCCN1C(=O)[C@H](CCCCN)NC(=O)[C@H](CCCCN)NC(=O)[C@H](CO)NC(=O)[C@H](CCC(=O)O)NC(=O)[C@H](CCCCN)NC(=O)[C@H](CCCNC(=N)N)NC(=O)[C@H](CCC(N)=O)NC(=O)[C@H](CCC(N)=O)NC(=O)[C@H](C)NC(=O)[C@H](CCCCN)NC(=O)[C@H](CCC(N)=O)NC(=O)[C@H](Cc1c[nH]cn1)NC(=O)[C@H](CCC(=O)O)NC(=O)[C@@H]1CCCN1C(=O)[C@H](CO)NC(=O)[C@H](CC(C)C)NC(=O)[C@H](Cc1ccccc1)NC(=O)[C@H](CO)NC(=O)[C@H](CO)NC(=O)CN)C(=O)N[C@@H](CCC(N)=O)C(=O)N1CCC[C@H]1C(=O)N[C@@H](CCCNC(=N)N)C(=O)O [Compound 4, reference compound] |
| 0.33 nM | CCCCCCCCOC[C@H](NC(=O)[C@H](CO)NC(=O)[C@@H]1CCCN1)C(=O)N[C@@H](Cc1ccccc1)C(=O)N[C@@H](CC(C)C)C(=O)N[C@@H](CO)C(=O)N1CCC[C@H]1C(=O)N[C@@H](CCC(=O)O)C(=O)N[C@@H](Cc1c[nH]cn1)C(=O)N[C@@H](CCC(N)=O)C(=O)N[C@@H](CCCNC(=N)N)C(=O)N[C@H](C(=O)N[C@@H](CCC(N)=O)C(=O)N[C@@H](CCCNC(=N)N)C(=O)N[C@@H](CCCCN)C(=O)N[C@@H](CCC(=O)O)C(=O)N[C@@H](CO)C(=O)N[C@@H](CCCCN)C(=O)N[C@@H](CCCCN)C(=O)N1CCC[C@H]1C(=O)N1CCC[C@H]1C(=O)N[C@@H](C)C(=O)N[C@@H](CCCCN)C(=O)N[C@@H](CC(C)C)C(=O)N[C@@H](CCC(N)=O)C(=O)N1CCC[C@H]1C(=O)N[C@@H](CCCNC(=N)N)C(N)=O)C(C)C [Compound 38] (H-PSS(Octyl)FLSPEHQRVQRKESKKPPAKLQPR-NH2) |
